The record followed here is patent US20200247815A1, “PYRAZOLYL-CONTAINING TRICYCLIC DERIVATIVE, PREPARATION METHOD THEREFOR AND USE THEREOF” (Jiangsu Hansoh Pharmaceutical Group Co., Ltd., priority 2017, published 2020).

The test system of data set [1] is pancreatic cancer tumor cell Mia Paca 2. The data set can be described thus: Inhibition of tumor cell proliferation (CellTiter-Glo). The data set is classed as cell-based. Conditions: Homo sapiens, Miapaca-2 cell, 3-7 days. On the procedure: The object of this test example is to determine the inhibition effect of the present compound on tumor cell proliferation activity. The inhibition activity of the compound on tumor cell proliferation was determined by CellTiter-Glo method, and the half inhibitory concentration IC50 of the compound for inhibiting cell proliferation activity was obtained, 50-100 μL of tumor cell suspension was inoculated in a 96-well cell culture plate with a density of 1˜5*10^4 cells/ml. The plate was incubated in an incubator for 16˜24 hours (37° C., 5% CO2). Solutions of test compounds at different concentrations obtained by gradient dilution were added to the cells in the plate. The plate was incubated in an incubator for 3-7 days (37° C., 5% CO2), 50˜100 μL of CellTiter-Glo reagent was added to each well. The plate was shaked for 10 minutes, and left to stand at room temperature for 10 minutes. The value of the chemiluminescence signal was determined by a microplate reader. The inhibition rate was calculated from the value of the chemiluminescence signal. IC50 of the compound was obtained by curve fitting based on the inhibition rate at different concentrations.
The inhibition effect of the present compound on pancreatic cancer tumor cell Mia Paca 2 proliferation activity was determined by the test, and the obtained IC50 value is shown in Table 2.

The target of data set [2] is T1, ERK-2 kinase (Homo sapiens, UniProt P28482).
T1 construct: purchased Invitrogen PV3313
The data set can be described thus: Inhibition of ERK-2 kinase activity (LANCE Ultra TR-FRET). Conditions: ERK-2 enzyme 0.08 nM, ATP 38.15 μM. The format is biochemical. As to the method:
The object of this test example is to determine the inhibition effect of the compound on ERK-2 kinase activity. In vitro ERK-2 kinase analysis was carried out by using LANCE Ultra (Perkin Elmer) method. The reaction (reaction system 10 μL) was conducted by adding 2.5 μL of test compound/DMSO (final 4%, V/V, diluted to 10 concentrations (400 nM to 0.02 nM) using a 1:3 dilution scheme), 5 μL of a mixed solution of ERK-2 enzyme (Invitrogen, # PV3313, final concentration: 0.08 nM) and substrate Ulight-MBP peptide (Perkin Elmer, # TRF0109-M, final concentration: 0.5 μM) formulated with a kinase buffer (50 mM Hepes pH 7.4, 10 mM MgCl2, 1 mM EGTA 0.01% Triton X-100, 2 mM DTT) and 2.5 μL of ATP solution (Invitrogen, # PV3227, final concentration: 38.15 μM) formulated with the same buffer successively to a 384-well plate (Perkin Elmer OPTIPLATE™) and mixing well. The reaction mixture was incubated at room temperature for 60 minutes. The reaction was stopped by adding IX LANCE Detection buffer (PerkinElmer # CR97-100) diluted with ultra-pure water, mM EDTA (Invitrogen #15575038) and 1 nM Eu-anti-p-MBP (PerkinElmer # TRF0201-M) antibody in 10 μL/well. The plate was incubated at room temperature for 60 minutes. Excitation reading was performed on Synergy H1 Hybird Reader, H1MFD (Biotek) with an excitation wavelength of 320 nm. TR-FRET rate was calculated by dividing the acceptor emission signal (signal value at 665 nM) by the Eu donor emission signal (signal value at 615 nM). The inhibition TR-FRET rate of the well treated by the compound was calculated relative to the Max signal (DMSO control) and Min signal (no enzyme added) control wells on the plate {% inhibition rate=100−[(test compound−Min average)]/(Max average−Min average)×100}. The 10 concentrations of the compound after 4-fold dilution of the reaction system were 100 nM to 0.005 nM. Abs_IC50 value was calculated by using GraphPad prism fits percentage inhibition rate and ten-point concentration data in a 4-parameter non-linear logic formula.

Data set [3] deals with T2, ERK-1 kinase (Homo sapiens, UniProt P27361).
T2 construct: purchased Invitrogen PV3311
The data set can be described thus: Inhibition of ERK-1 kinase activity (LANCE Ultra TR-FRET). Conditions: ERK1 enzyme 0.4 nM, ATP 38.15 μM. The data set is classed as biochemical. On the procedure:
The object of this test example is to determine the inhibition effect of the compound on ERK-1 kinase activity. In vitro ERK-1 kinase analysis was carried out by using LANCE Ultra (Perkin Elmer) method. The reaction (reaction system 10 μL) was conducted by adding 2.5 μL of test compound/DMSO (final 4%, V/V, diluted to 10 concentrations (400 nM to 0.02 nM) using a 1:3 dilution scheme), 5 μL of a mixed solution of ERK1 enzyme (Invitrogen, # PV3311, final concentration: 0.4 nM) and substrate Ulight-MBP peptide (Perkin Elmer, # TRF0109-M, final concentration: 0.5 μM) formulated with a kinase buffer (50 mM Hepes pH 7.4, 10 mM MgCl2, 1 mM EGTA, 0.01% Triton X-100, 2 mM DTT) and 2.5 μL of ATP solution (Invitrogen, # PV3227, final concentration: 38.15 μM) formulated with the same buffer successively to a 384-well plate (Perkin Elmer OPTIPLATE™) and mixing well. The reaction mixture was incubated at room temperature for 60 minutes. The reaction was stopped by adding 1× LANCE Detection buffer (PerkinElmer # CR97-100) diluted with ultra-pure water, mM EDTA (Invitrogen #15575038) and 1 nM Eu-anti-p-MBP (PerkinElmer # TRF0201-M) antibody in 10 μL/well. The plate was incubated at room temperature for 60 minutes. Excitation reading was performed on Synergy H1 Hybird Reader, H1MFD (Biotek) with an excitation wavelength of 320 nm. TR-FRET rate was calculated by dividing the acceptor emission signal (signal value at 665 nM) by the Eu donor emission signal (signal value at 615 nM). The inhibition TR-FRET rate of the well treated by the compound was calculated relative to the Max signal (DMSO control) and Min signal (no enzyme added) control wells on the plate {% inhibition rate=100−[(test compound−Min average)]/(Max average−Min average)×100}. The 10 concentrations of the compound after 4-fold dilution of the reaction system were 100 nM to 0.005 nM. Abs_IC50 value was calculated by using GraphPad prism fits percentage inhibition rate and ten-point concentration data in a 4-parameter non-linear logic formula.

The target in data set [4] is T3, hERG potassium channel (Homo sapiens, UniProt Q12809).
T3 construct: expressed in transfected cells; host or cells: CHO-hERG cells
Nature of the data set: hERG potassium channel inhibition activity test (Qpatch, CHO-hERG cells). The data set is classed as cell-based. On the procedure: 4.1.1 CHO-hERG cells were cultured in a 175 cm2 culture flask. After the cell density reached 60˜80%, the culture solution was removed. The cells were washed with 7 mL of PBS once, and dissociated with 3 mL of Detachin.
4.1.2 After completion of dissociation, the cells were neutralized with 7 mL of culture solution. The solution was centrifuged, and the supernate was removed. The cells were resuspended in 5 mL of culture solution. The cell indensity is ensured as […].
Single cell sealing impedance and formation of whole-cell mode were automatically performed by Qpatch instrument. After obtaining the whole-cell recording mode, the cell was clamped at −80 mV. The cell first underwent pre-voltage of −50 mV for 50 msec, then underwent depolarization stimulation at +40 mV for 5 sec, and then underwent repolarization at −50 mV for 5 sec. and then the voltage returned to −80 mV. The cell underwent the stimulation at the voltage every 15 sec, and the data were recorded for 2 min, then extracellular fluid was administrated, and then the data were recorded for 5 min. Then, the administration process begun. The concentration of the test compound started from the lowest concentration, each test concentration was administrated for 2.5 min. At least three cells were tested for each concentration.
4.4.1 20 mM mother liquor of the compound was diluted with extracellular fluid, 5 uL of 20 mM mother liquor of the compound was added with 2495 uL of extracellular fluid to obtain a concentration of 40 uM (500-fold dilution). The solution was subjected to a 3-fold serial dilution with extracellular fluid containing 0.2% DMSO to obtain a required final concentration.
This concentration of DMSO had no effect on hERG potassium channel.
The experimental data was analyzed by XLFit software.

A value given as a limit tells only on which side of the number the result lay.

T1 sequence (P28482 whole entry): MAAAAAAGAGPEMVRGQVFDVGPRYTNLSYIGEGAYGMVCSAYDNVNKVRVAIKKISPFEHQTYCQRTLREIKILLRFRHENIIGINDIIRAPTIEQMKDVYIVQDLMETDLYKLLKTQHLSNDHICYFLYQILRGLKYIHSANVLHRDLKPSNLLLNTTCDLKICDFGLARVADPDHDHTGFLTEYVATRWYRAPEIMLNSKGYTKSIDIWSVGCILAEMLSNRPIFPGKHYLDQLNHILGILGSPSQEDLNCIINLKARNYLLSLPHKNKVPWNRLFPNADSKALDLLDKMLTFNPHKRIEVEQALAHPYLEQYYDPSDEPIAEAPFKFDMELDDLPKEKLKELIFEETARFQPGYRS
T2 sequence (P27361 whole entry): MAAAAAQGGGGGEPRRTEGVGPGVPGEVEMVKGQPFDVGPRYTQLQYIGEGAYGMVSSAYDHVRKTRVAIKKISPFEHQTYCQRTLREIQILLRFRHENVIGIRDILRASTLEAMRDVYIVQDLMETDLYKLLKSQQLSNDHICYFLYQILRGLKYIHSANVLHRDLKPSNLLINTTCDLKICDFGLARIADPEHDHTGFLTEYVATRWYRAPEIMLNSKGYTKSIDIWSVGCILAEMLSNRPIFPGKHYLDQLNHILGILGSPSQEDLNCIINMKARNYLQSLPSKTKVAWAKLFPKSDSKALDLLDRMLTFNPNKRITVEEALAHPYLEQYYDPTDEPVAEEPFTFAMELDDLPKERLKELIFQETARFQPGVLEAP
T3 sequence (Q12809 whole entry): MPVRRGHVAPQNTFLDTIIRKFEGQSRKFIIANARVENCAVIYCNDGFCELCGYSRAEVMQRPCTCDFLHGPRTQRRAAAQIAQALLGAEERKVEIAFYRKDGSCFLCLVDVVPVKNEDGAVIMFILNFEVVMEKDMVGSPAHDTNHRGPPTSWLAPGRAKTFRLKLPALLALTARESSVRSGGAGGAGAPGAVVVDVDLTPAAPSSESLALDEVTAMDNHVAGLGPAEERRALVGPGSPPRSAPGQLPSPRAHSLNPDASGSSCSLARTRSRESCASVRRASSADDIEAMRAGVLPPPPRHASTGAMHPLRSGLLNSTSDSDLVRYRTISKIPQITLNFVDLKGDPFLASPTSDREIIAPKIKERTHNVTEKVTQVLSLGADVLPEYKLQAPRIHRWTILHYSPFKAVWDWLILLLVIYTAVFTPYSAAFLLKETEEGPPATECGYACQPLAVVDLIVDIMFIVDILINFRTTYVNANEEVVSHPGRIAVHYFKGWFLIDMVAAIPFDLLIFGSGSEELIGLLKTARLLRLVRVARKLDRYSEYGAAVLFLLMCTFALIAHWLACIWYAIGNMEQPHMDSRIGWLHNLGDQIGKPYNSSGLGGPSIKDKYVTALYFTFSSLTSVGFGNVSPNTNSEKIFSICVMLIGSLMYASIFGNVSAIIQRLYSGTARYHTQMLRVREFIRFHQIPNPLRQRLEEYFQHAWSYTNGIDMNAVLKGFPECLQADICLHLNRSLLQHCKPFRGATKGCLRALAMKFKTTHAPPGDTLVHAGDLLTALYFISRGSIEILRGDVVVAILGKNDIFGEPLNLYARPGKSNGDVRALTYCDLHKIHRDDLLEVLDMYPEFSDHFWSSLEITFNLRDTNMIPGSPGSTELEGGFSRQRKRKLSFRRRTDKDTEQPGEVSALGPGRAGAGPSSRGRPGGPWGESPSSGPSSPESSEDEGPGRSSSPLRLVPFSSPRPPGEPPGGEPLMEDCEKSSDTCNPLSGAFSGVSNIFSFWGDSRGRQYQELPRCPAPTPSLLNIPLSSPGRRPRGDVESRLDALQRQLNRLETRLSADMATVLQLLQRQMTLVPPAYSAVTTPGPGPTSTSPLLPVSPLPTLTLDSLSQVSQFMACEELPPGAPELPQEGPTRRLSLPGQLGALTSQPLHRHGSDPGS

`COc1cccc([C@@H](C)NC(=O)c2nc3cc4c(-c5ccncc5)n[nH]c4cc3[nH]2)c1` [Example 19, (R)—N-(1-(3-methoxyphenyl)ethyl)-3-(pyridin-4-yl)-1,7-dihydroimidazo[4,5-f]indazole-6-carboxamide]: the IC50 in data set [1] stood at 159 nM; in data set [2], 0.2 nM; in data set [3], 0.35 nM.

As to `Cc1cccc([C@@H](C)NC(=O)c2nc3cc4c(-c5ccncc5)n[nH]c4cc3[nH]2)c1` [Example 21, (R)-3-(pyridin-4-yl)-N-(1-(m-tolyl)ethyl)-1,7-dihydroimidazo[4,5-f]indazole-6-carboxamide], the IC50 in data set [1] worked out at 59.1 nM; in data set [2], 0.17 nM; in data set [3], 0.3 nM.

With `C[C@@H](NC(=O)c1nc2cc3c(-c4ccncc4)n[nH]c3cc2[nH]1)c1cccc(Cl)c1` [Example 22, (R)—N-(1-(3-chlorophenyl)ethyl)-3-(pyridin-4-yl)-1,7-dihydroimidazo[4,5-f]indazole-6-carboxamide], the IC50 in data set [1] amounted to 99.4 nM; in data set [2], 0.17 nM; in data set [3], 0.26 nM.

On to `O=C(N[C@H](CO)c1cccc(Cl)c1)c1nc2cc3c(-c4ccncc4)n[nH]c3cc2[nH]1` [Example 28, (S)—N-(1-(3-chlorophenyl)-2-hydroxyethyl)-3-(pyridin-4-yl)-1,7-dihydroimidazo[4,5-f]indazole-6-carboxamide], for which the IC50 in data set [1] turned out to be 202 nM; in data set [2], 0.1 nM; in data set [3], 0.1 nM.

For the compound `Cc1cccc([C@@H](CO)NC(=O)c2nc3cc4c(-c5ccncc5)n[nH]c4cc3[nH]2)c1` [Example 30, (S)—N-(2-hydroxy-1-(m-tolyl)ethyl)-(pyridin-4-yl)-1,7-dihydroimidazo[4,5-f]indazole-6-carboxamide], the IC50 is 61.6 nM in data set [1], 0.12 nM in data set [2] and 0.19 nM in data set [3].

Take `Cc1cc(-c2n[nH]c3cc4[nH]c(C(=O)N[C@H](C)c5ccccc5)nc4cc23)ccn1` [Example 36, (R)-3-(2-methylpyridin-4-yl)-N-(1-phenylethyl)-1,7-dihydroimidazo[4,5-f]indazole-6-carboxamide]: the results for the IC50 in data set [1], in data set [2] and in data set [3] were 244 nM, 1.23 nM and 1.08 nM, respectively.

As to `C[C@@H](NC(=O)c1nc2cc3c(-c4ccncc4)n[nH]c3cc2[nH]1)c1cccc(F)c1` [Example 45, (R)—N-(1-(3-fluorophenyl)ethyl)-3-(pyridin-4-yl)-1,7-dihydroimidazo[4,5-f]indazole-6-carboxamide], the IC50 stood at 110 nM in data set [1], 0.5 nM in data set [2] and 0.54 nM in data set [3].

Take `CNC[C@@H](NC(=O)c1nc2cc3c(-c4ccncc4)n[nH]c3cc2[nH]1)c1ccccc1` [Example 50, (S)—N-(2-(methylamino)-1-phenylethyl)-3-(pyridin-4-yl)-1,7-dihydroimidazo[4,5-f]indazole-6-carboxamide]: the IC50 was found to be 55.5 nM in data set [1], 0.17 nM in data set [2] and 0.29 nM in data set [3].

For `O=C(N[C@H](CNC1CC1)c1ccccc1)c1nc2cc3c(-c4ccncc4)n[nH]c3cc2[nH]1` [Example 54, (S)—N-(2-(cyclopropylamino)-1-phenylethyl)-3-(pyridin-4-yl)-1,7-dihydroimidazo[4,5-f]indazole-6-carboxamide], the IC50 in data set [1] amounted to 309 nM; in data set [2], 0.32 nM; in data set [3], 0.52 nM.

Consider `O=C(Cc1ccccc1)c1nc2cc3c(-c4ccncc4)n[nH]c3cc2[nH]1` [Example 105, 2-phenyl-1-(3-(pyridin-4-yl)-1,7-dihydroimidazo[4,5-f]indazol-6-yl)ethan-1-one], for which the “Inhibition effect on cardiac hERG potassium channel” value in data set [4] is on record as “no inhibition effect”. Besides, in data set [4] (CHO-hERG cells, highest test concentration 40 uM, read-out: hERG (inhibition effect on hERG current)), the IC50 was greater than 40000 nM.
